# Species: Rattus norvegicus
# Assay: DrugMatrix - Regimen: Daily Repeat
# Format: toxicity, organism-based, Sprague-Dawley
# Set-up: regimen Daily Repeat, gender Male, age 6-8 weeks
# Conditions: in vivo, po, route oral GAVAGE, […]; for ABSOLUTE BASOPHIL / ABSOLUTE EOSINOPHIL / ABSOLUTE LYMPHOCYTE / ABSOLUTE MONOCYTE / ABSOLUTE SEGMENTED NEUTROPHIL / BASOPHIL / EOSINOPHIL / ERYTHROCYTE COUNT / HEMATOCRIT / HEMOGLOBIN / LEUKOCYTE COUNT / LYMPHOCYTE / MEAN CORPUSCULAR HEMOGLOBIN / MEAN CORPUSCULAR HEMOGLOBIN CONCENTRATION / MEAN CORPUSCULAR VOLUME / MONOCYTE / NEUTROPHIL / NUCLEATED RED BLOOD CELLS / PLATELET COUNT: tissue Blood; for ALANINE AMINOTRANSFERASE / ALBUMIN / ALKALINE PHOSPHATASE / ASPARTATE AMINOTRANSFERASE / BLOOD UREA NITROGEN / CARBON DIOXIDE / CHLORIDE / CHOLESTEROL / CREATINE PHOSPHOKINASE / CREATININE / GLUCOSE / LACTATE DEHYDROGENASE / LIPASE / PHOSPHORUS / POTASSIUM / SODIUM / TOTAL BILIRUBIN / TOTAL PROTEIN / URIC ACID: tissue Plasma
# [1] = 12 mg/kg, 120 h, dose level Low, time 5 day
# [2] = 380 mg/kg, 72 h, dose level High, time 3 day
# [3] = 380 mg/kg, 120 h, dose level High, time 5 day
smiles,measurement,setting,value
COc1ncnc(NS(=O)(=O)c2ccc(N)cc2)c1OC [SULFADOXINE],ABSOLUTE BASOPHIL,[1],0 CELLS/uL
same,ABSOLUTE EOSINOPHIL,[1],0 CELLS/uL
same,ABSOLUTE LYMPHOCYTE,[1],10205.33 CELLS/uL
same,ABSOLUTE MONOCYTE,[1],178 CELLS/uL
same,ABSOLUTE SEGMENTED NEUTROPHIL,[1],483.33 CELLS/uL
same,BASOPHIL,[1],0%
same,EOSINOPHIL,[1],0%
same,ERYTHROCYTE COUNT,[1],5.46 x10E6/uL
same,HEMATOCRIT,[1],34.5%
same,HEMOGLOBIN,[1],13.53 G/DL
same,LEUKOCYTE COUNT,[1],10.87 x10E3/uL
same,LYMPHOCYTE,[1],94%
same,MEAN CORPUSCULAR HEMOGLOBIN,[1],24.8 pg
same,MEAN CORPUSCULAR HEMOGLOBIN CONCENTRATION,[1],39.27 G/DL
same,MEAN CORPUSCULAR VOLUME,[1],63.17 fL
same,MONOCYTE,[1],1.67%
same,NEUTROPHIL,[1],4.33%
same,NUCLEATED RED BLOOD CELLS,[1],0 /100WBC
same,PLATELET COUNT,[1],1312.33 x10E3/uL
same,ALANINE AMINOTRANSFERASE,[1],52 u/L
same,ALBUMIN,[1],4.1 G/DL
same,ALKALINE PHOSPHATASE,[1],476 u/L
same,ASPARTATE AMINOTRANSFERASE,[1],74.33 u/L
same,BLOOD UREA NITROGEN,[1],11.67 mg/dL
same,CARBON DIOXIDE,[1],31.67 mmol/L
same,CHLORIDE,[1],101.67 MEQ/L
same,CHOLESTEROL,[1],65.33 mg/dL
same,CREATINE PHOSPHOKINASE,[1],233 u/L
same,CREATININE,[1],0.14 mg/dL
same,GLUCOSE,[1],140.33 mg/dL
same,LACTATE DEHYDROGENASE,[1],125.67 u/L
same,LIPASE,[1],11.33 u/L
same,PHOSPHORUS,[1],10.5 mg/dL
same,POTASSIUM,[1],5.98 MEQ/L
same,SODIUM,[1],148.87 MEQ/L
same,TOTAL BILIRUBIN,[1],0.27 mg/dL
same,TOTAL PROTEIN,[1],5.87 G/DL
same,URIC ACID,[1],0.53 mg/dL
same,ABSOLUTE BASOPHIL,[2],0 CELLS/uL
same,ABSOLUTE EOSINOPHIL,[2],29.33 CELLS/uL
same,ABSOLUTE LYMPHOCYTE,[2],8090 CELLS/uL
same,ABSOLUTE MONOCYTE,[2],197 CELLS/uL
same,ABSOLUTE SEGMENTED NEUTROPHIL,[2],650.33 CELLS/uL
same,BASOPHIL,[2],0%
same,EOSINOPHIL,[2],0.33%
same,ERYTHROCYTE COUNT,[2],5.01 x10E6/uL
same,HEMATOCRIT,[2],31.2%
same,HEMOGLOBIN,[2],12.27 G/DL
same,LEUKOCYTE COUNT,[2],8.97 x10E3/uL
same,LYMPHOCYTE,[2],90%
same,MEAN CORPUSCULAR HEMOGLOBIN,[2],24.6 pg
same,MEAN CORPUSCULAR HEMOGLOBIN CONCENTRATION,[2],39.4 G/DL
same,MEAN CORPUSCULAR VOLUME,[2],62.43 fL
same,MONOCYTE,[2],2.33%
same,NEUTROPHIL,[2],7.33%
same,NUCLEATED RED BLOOD CELLS,[2],0 /100WBC
same,PLATELET COUNT,[2],1128.67 x10E3/uL
same,ALANINE AMINOTRANSFERASE,[2],92.33 u/L
same,ALBUMIN,[2],3.93 G/DL
same,ALKALINE PHOSPHATASE,[2],373.33 u/L
same,ASPARTATE AMINOTRANSFERASE,[2],93.67 u/L
same,BLOOD UREA NITROGEN,[2],13 mg/dL
same,CARBON DIOXIDE,[2],32.33 mmol/L
same,CHLORIDE,[2],99.67 MEQ/L
same,CHOLESTEROL,[2],78 mg/dL
same,CREATINE PHOSPHOKINASE,[2],280 u/L
same,CREATININE,[2],0.14 mg/dL
same,GLUCOSE,[2],143 mg/dL
same,LACTATE DEHYDROGENASE,[2],116.67 u/L
same,LIPASE,[2],11.67 u/L
same,PHOSPHORUS,[2],9.13 mg/dL
same,POTASSIUM,[2],5.99 MEQ/L
same,SODIUM,[2],144.13 MEQ/L
same,TOTAL BILIRUBIN,[2],0.2 mg/dL
same,TOTAL PROTEIN,[2],5.5 G/DL
same,URIC ACID,[2],0.37 mg/dL
same,ABSOLUTE BASOPHIL,[3],0 CELLS/uL
same,ABSOLUTE EOSINOPHIL,[3],0 CELLS/uL
same,ABSOLUTE LYMPHOCYTE,[3],5345.67 CELLS/uL
same,ABSOLUTE MONOCYTE,[3],97.67 CELLS/uL
same,ABSOLUTE SEGMENTED NEUTROPHIL,[3],423.33 CELLS/uL
same,BASOPHIL,[3],0%
same,EOSINOPHIL,[3],0%
same,ERYTHROCYTE COUNT,[3],5.09 x10E6/uL
same,HEMATOCRIT,[3],32.47%
same,HEMOGLOBIN,[3],12.83 G/DL
same,LEUKOCYTE COUNT,[3],5.87 x10E3/uL
same,LYMPHOCYTE,[3],91.33%
same,MEAN CORPUSCULAR HEMOGLOBIN,[3],25.23 pg
same,MEAN CORPUSCULAR HEMOGLOBIN CONCENTRATION,[3],39.53 G/DL
same,MEAN CORPUSCULAR VOLUME,[3],63.77 fL
same,MONOCYTE,[3],1.67%
same,NEUTROPHIL,[3],7%
same,NUCLEATED RED BLOOD CELLS,[3],0 /100WBC
same,PLATELET COUNT,[3],1282.67 x10E3/uL
same,ALANINE AMINOTRANSFERASE,[3],65.67 u/L
same,ALBUMIN,[3],3.97 G/DL
same,ALKALINE PHOSPHATASE,[3],341.33 u/L
same,ASPARTATE AMINOTRANSFERASE,[3],76 u/L
same,BLOOD UREA NITROGEN,[3],15 mg/dL
same,CARBON DIOXIDE,[3],31.33 mmol/L
same,CHLORIDE,[3],99.33 MEQ/L
same,CHOLESTEROL,[3],75 mg/dL
same,CREATINE PHOSPHOKINASE,[3],205.67 u/L
same,CREATININE,[3],0.2 mg/dL
same,GLUCOSE,[3],145 mg/dL
same,LACTATE DEHYDROGENASE,[3],115.67 u/L
same,LIPASE,[3],10.33 u/L
same,PHOSPHORUS,[3],10.13 mg/dL
same,POTASSIUM,[3],5.99 MEQ/L
same,SODIUM,[3],144.77 MEQ/L
same,TOTAL BILIRUBIN,[3],0.17 mg/dL
same,TOTAL PROTEIN,[3],5.97 G/DL
same,URIC ACID,[3],0.6 mg/dL
